The values below come from US20230114241A1, “METHODS OF TREATING EPILEPSY USING THE SAME” (Trevena, Inc., priority 2019, published 2023).

human sphingosine-1-phosphate receptor 1 (S1P1), sequence (P21453 whole entry): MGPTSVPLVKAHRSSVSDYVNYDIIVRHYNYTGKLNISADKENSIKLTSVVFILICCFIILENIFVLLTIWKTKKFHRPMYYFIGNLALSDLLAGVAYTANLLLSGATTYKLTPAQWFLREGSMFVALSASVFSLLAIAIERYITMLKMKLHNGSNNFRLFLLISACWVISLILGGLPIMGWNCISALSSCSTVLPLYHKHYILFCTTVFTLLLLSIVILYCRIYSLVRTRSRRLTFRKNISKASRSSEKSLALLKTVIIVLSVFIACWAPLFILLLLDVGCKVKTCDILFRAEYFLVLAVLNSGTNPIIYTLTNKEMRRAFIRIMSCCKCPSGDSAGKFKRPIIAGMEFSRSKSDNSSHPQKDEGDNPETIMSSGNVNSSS

One experiment deals with human sphingosine-1-phosphate receptor 1 (S1P1) (Homo sapiens, UniProt P21453). The experiment can be described thus: Inhibition of cAMP production (HTRF cAMP HiRange), S1P1 CHO-K1 cells. The experiment is classed as cell-based. To be noted: inhibition of cAMP production, S1P1; read-out: hS1P1 CAMP pEC50 (converted). In a few lines:
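Intracellular cAMP changes read by TR-FRET (HTRF HiRange, 1 h room temperature) after 30 min compound exposure at 37 °C. Cells: overnight-plated CHO-K1 stably expressing tagged human S1P1 with EA-β-arrestin2. Responses normalized to fingolimod.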
Turning to `CC(C)n1nnc2cc(-c3c[nH]c(-c4ccccc4)c3)ccc21` [Compound 543, 5-(5-phenyl-1H-pyrrol-3-yl)-1-(propan-2-yl)-1H-1,2,3-benzotriazole], the EC50 is less than 316 nM.

Consider `COc1cccc(-c2coc(-c3ccc4c(c3)nnn4C(C)C)n2)c1` [Compound 385, 5-[4-(3-methoxyphenyl)-1,3-oxazol-2-yl]-1-(propan-2-yl)-H-1,2,3-benzotriazole], for which the EC50 was greater than 316 nM.

In the case of `N#Cc1cc(-c2nnc(-c3ccc4[nH]cnc4c3)o2)ccc1NC1CC1` [Compound 598, 5-[5-(1H-1,3-benzo-diazol-5-yl)-1,3,4-oxadiazol-2-yl]-2-(cyclopropyl-amino)benzonitrile], the EC50 was less than 316 nM.

As for `CC(C)(O)Cn1nnc2cc(-c3nc(-c4cccc5cc[nH]c45)no3)ccc21` [Compound 577, 1-{5-[3-(1H-indol-7-yl)-1,2,4-oxadiazol-5-yl]-1H-1,2,3-benzotriazol-1-yl}-2-methylpropan-2-ol], the EC50 is greater than 316 nM.

Take `CC(C)n1nnc2cc(-c3nc(-c4cccs4)co3)ccc21` [Compound 459, 1-(propan-2-yl)-5-[4-(thiophen-2-yl)-1,3-oxazol-2-yl]-1H-1,2,3-benzotriazole]: the EC50 was greater than 316 nM.

The same experiment, now with this note: inhibition of cAMP production; potency; read-out: hS1P1 CAMP pEC50 (converted).
For `COc1ccccc1-c1nc(-c2ccc3c(c2)nnn3C2CCCC2)no1` [Compound 120, 3-(1-cyclopentyl-1H-benzo[d][1,2,3]triazol-5-yl)-5-(2-methoxyphenyl)-1,2,4-oxadiazole], the EC50 is less than 316 nM.

In the case of `c1cc(-c2noc(-c3ccc4c(c3)nnn4C3CCCC3)n2)ccn1` [Compound 174, 1-cyclopentyl-5-[3-(pyridin-4-yl)-1,2,4-oxadiazol-5-yl]-1H-1,2,3-benzotriazole], the EC50 was less than 316 nM.

On to `CC(C)n1nnc2cc(-c3ncc(-c4cccc(F)c4)s3)ccc21` [Compound 110, 5-(3-fluorophenyl)-2-(1-isopropyl-1H-benzo[d][1,2,3]triazol-5-yl)thiazole], for which the EC50 is greater than 316 nM.

Turning to `CC(C)Nc1ccc(-c2nc(-c3ccc4c(c3)CC(=O)N4)no2)cc1C#N` [Compound 107, 2-(isopropylamino)-5-(3-(2-oxoindolin-5-yl)-1,2,4-oxadiazol-5-yl)benzonitrile], the EC50 was less than 316 nM.

Take `CCC1(CC)CC(=O)c2cc(-c3nnc(-c4cccnc4)o3)ccc2O1` [Compound 28, 2,2-diethyl-6-(5-(pyridin-3-yl)-1,3,4-oxadiazol-2-yl)chroman-4-one]: the EC50 is greater than 316 nM.

Take `Cc1cc(C)cc(-c2noc(-c3ccc4c(c3)nnn4C3CCCCC3)n2)c1` [Compound 158, 1-cyclohexyl-5-[3-(3,5-dimethylphenyl)-1,2,4-oxadiazol-5-yl]-1H-1,2,3-benzotriazole]: the EC50 is greater than 316 nM.

Consider `OCCn1nnc2cc(-c3noc(-c4ccccc4Br)n3)ccc21` [Compound 238, 2-(5-(5-(2-bromo-phenyl)-1,2,4-oxadiazol-3-yl)-1H-benzo[d][1,2,3]triazol-1-yl)ethanol], for which the EC50 was greater than 316 nM.

`CC1(C)CCC2(CC1)CC(=O)c1cc(-c3nc(-c4cccnc4)no3)ccc1O2` [Compound 58, 4′,4′-dimethyl-6-[3-(pyridin-3-yl)-1,2,4-oxadiazol-5-yl]-3,4-dihydrospiro[1-benzopyran-2,1′-cyclohexane]-4-one]: the EC50 is greater than 316 nM.

`C=CCNc1ccc(-c2nc(-c3ccc(NS(C)(=O)=O)cc3)no2)cc1C#N` [Compound 149, N-(4-(5-(4-(allylamino)-3-cyanophenyl)-1,2,4-oxadiazol-3-yl)phenyl) methanesulfonamide]: the EC50 is less than 316 nM.

Regarding `Cc1ncc(-c2nc(-c3ccc4c(c3)nnn4C(C)C)no2)nc1C` [Compound 133, 5-(5,6-dimethylpyrazin-2-yl)-3-(1-isopropyl-1H-benzo[d][1,2,3]triazol-5-yl)-1,2,4-oxadiazole], the EC50 was greater than 316 nM.

For `COc1ccccc1-c1noc(-c2ccc3c(c2)nnn3C2CCOCC2)n1` [Compound 231, 5-[3-(2-methoxy-phenyl)-1,2,4-oxadiazol-5-yl]-1-(oxan-4-yl)-1H-1,2,3-benzotriazole], the EC50 is greater than 316 nM.
